Experiment [1] relates to Récepteurs adrénergiques α. The experiment in a line: Interference with noradrenaline-induced contraction (cumulative doses) of isolated vas deferens. The note with it: rat vas deferens; for pA2: noradrenaline contraction; for INTERFERENCE AVEC LES RECEPTEURS ADRENERGIQUES α: result in words. The text has this:
(§1) L'activité pharmacologique des composés de l'invention a été révélée par recherche d'une interférence avec les récepteurs adrénergiques β1, β2 et α in vitro, conformément aux protocoles expérimentaux ci-après.
Récepteurs adrénergiques α : on étudie l'interférence des composés de l'invention sur la contraction du vas déferens isolé du rat, provoquée par des doses cumulatives de noradrénaline.
(§2) Les résultats sont exprimés dans le tableau I par les paramètres usuels de pharmacologie moléculaire, selon les critères utilisés par Van Rossum [Arch. Int.

The target of experiment [2] is T1, récepteurs adrénergiques β2 du muscle trachéal de cobaye (Cavia porcellus, UniProt Q8K4Z4).
T1 construct: du muscle trachéal de cobaye; from tissue; host or cells: guinea pig tracheal muscle
T1 sequence (Q8K4Z4 whole entry): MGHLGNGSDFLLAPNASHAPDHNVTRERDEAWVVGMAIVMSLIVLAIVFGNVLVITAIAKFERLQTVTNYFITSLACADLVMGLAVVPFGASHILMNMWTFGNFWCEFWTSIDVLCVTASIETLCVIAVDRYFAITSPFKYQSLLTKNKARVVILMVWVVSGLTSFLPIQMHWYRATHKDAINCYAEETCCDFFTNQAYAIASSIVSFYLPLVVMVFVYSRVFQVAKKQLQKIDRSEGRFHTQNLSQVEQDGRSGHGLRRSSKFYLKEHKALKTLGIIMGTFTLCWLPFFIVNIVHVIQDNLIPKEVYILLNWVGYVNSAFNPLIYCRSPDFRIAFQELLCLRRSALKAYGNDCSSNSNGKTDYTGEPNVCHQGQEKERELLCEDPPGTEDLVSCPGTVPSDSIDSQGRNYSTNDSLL
The experiment in a line: Antagonism of the bronchodilator effects of isoprenaline on isolated tracheal muscle. The note with it: guinea-pig tracheal muscle; for Kb: β2, antagonism of isoprenaline, read-out: pA2 (converted); for INTERFERENCE AVEC LES RECEPTEURS ADRENERGIQUES β2: result in words.
From the text: as §1
Récepteurs adrénergiques β2 : on recherche l'antagonisme des effets bronchodilatateurs de l'isoprénaline sur les récepteurs p2 du muscle trachéal de cobaye.
as §2

Experiment [3] concerns récepteurs β1 de l'oreillette gauche de cobaye. The experiment in a line: Antagonism of the positive inotropic effect of isoprenaline on electrically stimulated isolated left atrium. The note with it: for cardiosélectivité: β1 versus β2, in words.
From the text: as §1
(§3) Récepteurs adrénergiques β1 : on recherche l'antagonisme de l'effet inotrope positif de l'isoprénaline sur les récepteurs β1 de l'oreillette gauche de cobaye stimulée électriquement.
as §2

Experiment [4] concerns the target T2, récepteurs β1 de l'oreillette gauche de cobaye (Cavia porcellus, UniProt H0W3H1).
T2 construct: l'oreillette gauche de cobaye stimulée électriquement; from tissue; host or cells: guinea pig left atrium, electrically stimulated
The description is as above. The note with it: β1, guinea-pig left atrium; for Kb: antagonism of isoprenaline, read-out: pA2 (converted).
From the text: as §1, §3, §2

Experiment [5] has as its system souris. The experiment in a line: Chemical stimulus analgesia test (Siegmund; abdominal cramps). To be noted: Mus musculus, po; test de stimulus chimique; par voie orale chez la souris; read-out: DE 50 (dose qui inhibe de 50 % le nombre de crampes abdominales). The experiment is classed as in vivo. How it is done: Dans le test de stimulus chimique [SIEGMUND E., CADMUS R. GO LU - Proc. Soc. Exp. Biol. Med. 95, 729-731, (1957)] la DE 50 de ce composé - qui représente la dose qui inhibe de 50 % le nombre de crampes abdominales par rapport à celui du groupe des animaux de contrôle - est de 9 mg/kg par voie orale chez la souris.

The subject of experiment [6] is souris. The experiment in a line: Thermal stimulus analgesia test (Eddy and Leimbach). The note with it: Mus musculus, po; test de stimulus thermique; par voie orale chez la souris; read-out: DE 50 (dose qui augmente de 50 % le temps de réaction). The experiment is classed as in vivo. How it is done:
Dans le test de stimulus thermique [selon EDDY N.B., LEIMBACH D.J. Pharmacol. Exp. Ther., 107, 385-393, (1953)J la DE 50 de ce composé ― qui représente la dose de produit qui augmente de 50 % le temps de réaction des animaux traités par rapport à celui du groupe des animaux de contrôle - est de 4,4 mg/kg par voie orale chez la souris.

Each structure is given as a SMILES string.

T2 sequence (H0W3H1 1-470): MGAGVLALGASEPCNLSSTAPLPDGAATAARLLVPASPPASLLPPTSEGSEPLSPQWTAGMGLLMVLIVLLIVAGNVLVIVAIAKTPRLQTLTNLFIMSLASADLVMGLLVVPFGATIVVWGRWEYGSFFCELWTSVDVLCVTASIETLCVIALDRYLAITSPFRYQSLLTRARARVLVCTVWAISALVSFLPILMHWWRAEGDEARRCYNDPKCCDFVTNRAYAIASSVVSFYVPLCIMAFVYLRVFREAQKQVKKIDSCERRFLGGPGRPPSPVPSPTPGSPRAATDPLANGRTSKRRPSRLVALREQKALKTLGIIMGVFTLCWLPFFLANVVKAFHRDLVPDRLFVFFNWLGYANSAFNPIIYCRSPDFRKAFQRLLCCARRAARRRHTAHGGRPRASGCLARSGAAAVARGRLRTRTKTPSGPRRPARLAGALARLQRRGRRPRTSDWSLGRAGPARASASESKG

For `CC(C)NCC(O)c1ccc2[nH]c(=O)oc2c1` (stereo not drawn) [compound 18, 2-isopropylamino 1-(2-benzoxazolinon-6-yl) éthanol], the pA2 result in experiment [1] (α) is “pA2 = 6,03 ± 0,43”. Moreover, the values for the Kb in experiment [2] and in experiment [4] were 0.776 µM and 0.0347 µM, respectively. Further, the cardiosélectivité result in experiment [3] is reported as “de faible intensité”.
`Cn1c(=O)oc2cc(C(O)CN3CCC(Cc4ccccc4)CC3)ccc21` (stereo not drawn) [compound 25, 2-(4-benzylpipéradinyl) 1-(3-méthyl 2-benzoxazolinon-6-yl) éthanol]: in experiment [2], the “INTERFERENCE AVEC LES RECEPTEURS ADRENERGIQUES β2” value is on record as “Inactif”. In addition, the cardiosélectivité result in experiment [3] is reported as “importante, voire totale”. In experiment [4], the Kb was 2 µM and the “pD'2” value was 4,2.
Consider `Cn1c(=O)oc2cc(C(O)CN3CCN(c4cccc(C(F)(F)F)c4)CC3)ccc21` (stereo not drawn) [compound 31, 2-[4-(3-trifluorométhyl)phénylpipérazinyl] 1-(3-méthyl 2-benzoxazolinon-6-yl) éthanol], for which the values for the ED50 in the experiment with souris [5] and in the experiment with souris [6] were 9 mg/kg and 4.4 mg/kg, respectively. The “activité sur les récepteurs adrénergiques” value in experiment [3] (adrenergic receptors in general (β1, β2, α), in words) is on record as “n'a pas une activité de même niveau que les autres composés de l'invention”.
Consider `Cn1c(=O)oc2cc(C(=O)CN3CCC(Cc4ccccc4)CC3)ccc21` [compound 13, 2-(4-benzyl-pipéridinyl) 1-(3-méthyl 2-benzoxazolinon-6-yl) éthanone], for which, in experiment [4], the Kb is 5.01 µM.
Take `C[C@@H]([C@H](O)c1ccc2c(c1)oc(=O)n2C)N1CCC(Cc2ccccc2)CC1` (relative stereo) [compound 29]: in experiment [2], the “INTERFERENCE AVEC LES RECEPTEURS ADRENERGIQUES β2” value is “Agoniste partiel”. In addition, in experiment [4], the Kb was 2.95 µM and the “pD'2” value is recorded as 4,50 ± 0,21.
`C[C@@H]([C@H](O)c1ccc2c(c1)oc(=O)n2C)N1CCN(c2ccc(F)cc2)CC1` (relative stereo) [compound 28]: in experiment [1], the “INTERFERENCE AVEC LES RECEPTEURS ADRENERGIQUES α” value was “Inactif”. Besides, in experiment [2], the “INTERFERENCE AVEC LES RECEPTEURS ADRENERGIQUES β2” value is listed as “Inactif”. Also, the cardiosélectivité entry in experiment [3] is “importante, voire totale”. In addition, in experiment [4], the Kb is 6.17 µM and the “pD'2” value was found to be 4.
For `O=c1[nH]c2ccc(C(O)CN3CCN(c4ccc(F)cc4)CC3)cc2o1` (stereo not drawn) [compound 30], the “INTERFERENCE AVEC LES RECEPTEURS ADRENERGIQUES β2” value in experiment [2] is “Inactif”. Further, the cardiosélectivité entry in experiment [3] is reported as “importante, voire totale”. In addition, the Kb in experiment [4] is 3.98 µM.
With `CC(C)(C)NCC(O)c1ccc2[nH]c(=O)oc2c1` (stereo not drawn) [compound 19], in experiment [1], the “INTERFERENCE AVEC LES RECEPTEURS ADRENERGIQUES α” value is reported as “Inactif”. The results for the Kb in experiment [2] and in experiment [4] were 1.48 µM and 0.224 µM, respectively.
Consider `COc1ccccc1N1CCN(CC(O)c2ccc3c(c2)oc(=O)n3C)CC1` (stereo not drawn) [compound 22], for which, in experiment [1] (α), the pA2 entry was “pA2 = 5,7 ± 0,25”. The “INTERFERENCE AVEC LES RECEPTEURS ADRENERGIQUES β2” value in experiment [2] was “Agoniste partiel”. Also, the Kb in experiment [4] is 2.82 µM.
`COc1ccccc1N1CCN([C@@H](C)[C@H](O)c2ccc3c(c2)oc(=O)n3C)CC1` (relative stereo) [compound 27, Erythro 2-[4-(2-méthoxyphényl)pipéraziny] 1-(3-méthyl-2-benzoxazolinon-6-yl) propanol]: in experiment [1] (α), the pA2 is given as 6,14 ± 0,31 and the “pD'2” value was 4,73 ± 0,38. Also, in experiment [2], the Kb was 20.9 µM. Besides, in experiment [4], the Kb was 2.24 µM.
Turning to `CC(C(=O)c1ccc2c(c1)oc(=O)n2C)N1CCN(c2ccc(F)cc2)CC1` (stereo not drawn) [compound 10], in experiment [1] (α), the pA2 entry is “pA2 = 5,3 ± 0,12”. In experiment [2], the “INTERFERENCE AVEC LES RECEPTEURS ADRENERGIQUES β2” value is “Agoniste partiel”. Further, in experiment [4], the Kb was 1.26 µM and the “pD'2” value is recorded as 4,59 ± 0,61.
On to `COc1ccccc1N1CCN(CC(=O)c2ccc3c(c2)oc(=O)n3C)CC1` [compound 9, 2 [4-(2-méthoxyphényl)pipérazinyl] 1-(3-méthyl 2-benzoxazolinon-6-yl) éthanone], for which, in experiment [4], the Kb is 3.98 µM and the “pD'2” value is given as 3,8.
Regarding `NCC(O)c1ccc2[nH]c(=O)oc2c1` (stereo not drawn) [compound 16], in experiment [1] (α), the pA2 entry is recorded as “pA2 = 4,73 ± 0,52”. In experiment [2], the “INTERFERENCE AVEC LES RECEPTEURS ADRENERGIQUES β2” value was “Inactif”. Also, the Kb in experiment [4] is 6.31 µM.

Values taken from EP0049203A1, “Benzoxazolinones substituted in the 6-position by an amino-alcohol or amino-ketone chain, their preparation and their therapeutic use” (RIOM LABORATOIRES- C.E.R.M. (Société Anonyme), priority 1980, dated 1982).
